Test results reported in the supplement of paper PMC10307832.

Assays:
Assay in all cases: relative viability (nuclei count vs DMSO), 5 days (fraction); higher = more cells survive
[1] = compound: C1CSC2=C(C(=O)N1)SC3=C2C=C(C=C3)O [kb NB 142-70] + CCNC(=O)c1noc(-c2cc(C(C)C)c(O)cc2O)c1-c1ccc(CN2CCOCC2)cc1 [Luminespib] (partner 0.01 µM)
How it was run: (§1)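 The day after seeding in 1536-well plates, lung cancer cell lines were treated by pin tool with a single drug, or with a fixed anchor-drug dose together with five library-drug doses (not always all listed) in √10 steps. After 5 days, a combined fix-and-stain solution (final 0.05% Triton X-100, 1% formaldehyde, 1 ug/ml Hoechst) was added. Nuclei counted on 4× images gave relative viability as treated counts over vehicle counts, reported as the median of duplicate plates.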

[2] = compound: NCC(=O)Nc1ccc(-n2nc(C(F)(F)F)cc2-c2ccc3c(ccc4ccccc43)c2)cc1 + Cc1cc(Nc2cc(N3CCN(C)CC3)nc(Sc3ccc(NC(=O)C4CC4)cc3)n2)n[nH]1 [Tozasertib] (partner 0.1 µM)
How it was run: as §1

[3] = compound: NCC(=O)Nc1ccc(-n2nc(C(F)(F)F)cc2-c2ccc3c(ccc4ccccc43)c2)cc1 + COc1cccc2cc(-c3nc([C@H]4CC[C@H](C(=O)O)CC4)n4ncnc(N)c34)[nH]c12 [OSI-027] (partner 0.5 µM)
How it was run: as §1

[4] = compound: NCC(=O)Nc1ccc(-n2nc(C(F)(F)F)cc2-c2ccc3c(ccc4ccccc43)c2)cc1 + Cc1nc(NC(=O)N2CCC[C@H]2C(N)=O)sc1-c1ccnc(C(C)(C)C(F)(F)F)c1 [Alpelisib] (partner 2 µM)
How it was run: as §1

Cell Line	relative viability ([1]; first compound 0.1 µM)	relative viability ([1]; first compound 1 µM)	relative viability ([1]; first compound 3.162 µM)	relative viability ([2]; first compound 0.02 µM)	relative viability ([2]; first compound 0.06325 µM)	relative viability ([2]; first compound 0.2 µM)	relative viability ([2]; first compound 0.6325 µM)	relative viability ([2]; first compound 2 µM)	relative viability ([3]; first compound 0.02 µM)	relative viability ([3]; first compound 0.06325 µM)	relative viability ([3]; first compound 0.2 µM)	relative viability ([3]; first compound 0.6325 µM)	relative viability ([3]; first compound 2 µM)	relative viability ([4]; first compound 0.02 µM)	relative viability ([4]; first compound 0.06325 µM)	relative viability ([4]; first compound 0.2 µM)	relative viability ([4]; first compound 0.6325 µM)	relative viability ([4]; first compound 2 µM)
PC-3 [JPC-3]	0.709	0.817	0.627	0.9	0.889	0.976	0.971	0.828	0.802	0.761	0.777	0.715	0.872	1.04	1.07	1.05	1.07	1.13
PC-14	0.149	0.173	0.13	0.634	0.606	0.543	0.517	0.651	0.769	0.949	0.937	0.82	0.726	1.04	0.952	1.02	0.889	1.04
RERF-LC-KJ	1.33	1.27	0.936	0.449	0.548	0.555	0.552	0.403	0.542	0.608	0.515	0.644	0.583	0.848	0.899	0.734	0.883	0.937
SK-LU-1	0.198	0.199	0.204	0.324	0.335	0.386	0.346	0.339	0.343	0.358	0.441	0.313	0.374	0.913	1.08	1.3	0.891	0.977
SK-MES-1	0.84	0.743	0.35	0.939	1	0.914	0.866	0.856	0.677	0.575	0.622	0.616	0.646	1.02	0.981	0.925	0.816	0.919
SW 1573	0.21	0.413	0.149	0.244	0.15	0.272	0.228	0.182	0.593	0.658	0.759	0.487	0.551	0.782	0.741	0.807	0.75	0.765
